Broadly, the IC50 is the concentration at which inhibition is half-maximal.

This note sets out measurements from patent US9278981B2, “Compounds and compositions for inhibiting the activity of ABL1, ABL2 and BCR-ABL1” (Novartis AG, priority 2012, dated 2016).

Experiment [1] addresses T1, ABL1 (64-515) (Homo sapiens (Human), UniProt P00519). The experiment is described as follows: Radio ABL1 (64-515) assay (radiometric filter-binding). In kind it is biochemical.
Experiment [2] deals with T1, ABL1 (64-515). The experiment is described as follows: Caliper ABL1 (64-515) assay (microfluidic mobility shift). In kind it is biochemical.

SMILES strings stand for the structures.

T1 sequence (P00519 64-515): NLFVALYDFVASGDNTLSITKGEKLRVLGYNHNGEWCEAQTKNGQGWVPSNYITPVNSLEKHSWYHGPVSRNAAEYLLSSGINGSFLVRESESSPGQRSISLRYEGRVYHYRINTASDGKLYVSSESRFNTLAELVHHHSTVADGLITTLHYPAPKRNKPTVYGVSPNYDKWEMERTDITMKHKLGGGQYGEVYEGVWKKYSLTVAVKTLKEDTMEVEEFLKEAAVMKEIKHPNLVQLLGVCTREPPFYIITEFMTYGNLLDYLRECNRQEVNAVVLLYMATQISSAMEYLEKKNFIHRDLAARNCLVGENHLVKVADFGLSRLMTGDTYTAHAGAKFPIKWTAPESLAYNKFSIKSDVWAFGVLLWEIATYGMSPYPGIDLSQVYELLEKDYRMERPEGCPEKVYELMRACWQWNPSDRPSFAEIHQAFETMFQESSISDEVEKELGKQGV

As to `CC(C)(O)c1cc(F)cc(-c2cc(C(=O)Nc3ccc(OC(F)(F)F)cc3)cnc2N2CC[C@@H](O)C2)c1` [Example 60, (R)-5-(3-Fluoro-5-(2-hydroxypropan-2-yl)phenyl)-6-(3-hydroxypyrrolidin-1-yl)-N-(4-(trifluoromethoxy)phenyl)nicotinamide], the IC50 in experiment [1] turned out to be 4 nM; in experiment [2] it was 6 nM.

With `O=C(Nc1ccc(OC(F)(F)F)cc1)c1cnc(N2CC[C@@H](O)C2)c(-c2cc(F)cc(F)c2)c1` [Example 61, (R)-5-(3,5-Difluorophenyl)-6-(3-hydroxypyrrolidin-1-yl)-N-(4-(trifluoromethoxy)phenyl)nicotinamide], the IC50 in experiment [1] was 4 nM; in experiment [2], 0.5 nM.

In the case of `COC(=O)c1cc(F)cc(-c2cc(C(=O)Nc3ccc(OC(F)(F)F)cc3)cnc2N2CC[C@@H](O)C2)c1` [Example 62, (R)-Methyl 3-fluoro-5-(2-(3-hydroxypyrrolidin-1-yl)-5-((4-(trifluoromethoxy)phenyl)carbamoyl)pyridin-3-yl)benzoate], the IC50 in experiment [1] came to 4 nM; in experiment [2] it was 2.1 nM.

On to `Nc1ncc(-c2cc(C(=O)Nc3ccc(OC(F)(F)F)cc3)cnc2N2CCCC2)cn1` [Example 68, 5-(2-Aminopyrimidin-5-yl)-6-(pyrrolidin-1-yl)-N-(4-(trifluoromethoxy)phenyl)nicotinamide], for which the IC50 was under 3 nM in experiment [1] and 0.9 nM in experiment [2].

For `O=C(Nc1ccc(OC(F)(F)F)cc1)c1cnc(N2CCCC2)c(-c2ccc(CO)nc2)c1` [Example 69, 6′-(Hydroxymethyl)-2-(pyrrolidin-1-yl)-N-(4-(trifluoromethoxy)phenyl)-[3,3′-bipyridine]-5-carboxamide], the figures for the IC50 in experiment [1] and in experiment [2] were under 3 nM and 0.5 nM, respectively.

For the molecule `O=C(Nc1ccc(OC(F)(F)F)cc1)c1cnc(N2C[C@H](O)[C@@H](O)C2)c(-c2cccnc2)c1` [Example 70, 2-((3S,4S)-3,4-Dihydroxypyrrolidin-1-yl)-N-(4-(trifluoromethoxy)phenyl)-[3,3′-bipyridine]-5-carboxamide], the figures for the 50% inhibitory concentration (IC50) in experiment [1] and in experiment [2] were under 3 nM and 0.4 nM, respectively.

For the molecule `Cc1ccc(-c2cc(C(=O)Nc3ccc(OC(F)(F)F)cc3)cnc2N2CC[C@@H](CO)C2)cn1` [Example 77, (R)-2-(3-(hydroxymethyl)pyrrolidin-1-yl)-6′-methyl-N-(4-(trifluoromethoxy)phenyl)-[3,3′-bipyridine]-5-carboxamide], the IC50 was determined as 3 nM in experiment [1] and 0.9 nM in experiment [2].

`Cc1ccc(-c2cc(C(=O)Nc3ccc(OC(F)(F)F)cc3)cnc2N2CC[C@H](CO)C2)cn1` [Example 82, (S)-2-(3-(Hydroxymethyl)pyrrolidin-1-yl)-6′-methyl-N-(4-(trifluoromethoxy)phenyl)-[3,3′-bipyridine]-5-carboxamide]: the IC50 was under 3 nM in experiment [1] and 0.6 nM in experiment [2].

On to `O=C(Nc1ccc(OC(F)(F)F)cc1)c1cnc(N2CC[C@H](CO)C2)c(-c2ccc(CF)nc2)c1` [Example 84, (S)-6′-(Fluoromethyl)-2-(3-(hydroxymethyl)pyrrolidin-1-yl)-N-(4-(trifluoromethoxy)phenyl)-[3,3′-bipyridine]-5-carboxamide], for which the figures for the IC50 in experiment [1] and in experiment [2] were 3 nM and 1.1 nM, respectively.

As to `Cc1ncc(-c2cc(C(=O)Nc3ccc(OC(F)(F)F)cc3)cnc2N2CC[C@H](CO)C2)cc1F` [Example 87, (S)-5′-Fluoro-2-(3-(hydroxymethyl)pyrrolidin-1-yl)-6′-methyl-N-(4-(trifluoromethoxy)phenyl)-[3,3′-bipyridine]-5-carboxamide], the IC50 in experiment [1] came to 6 nM; in experiment [2], 0.7 nM.

For the molecule `O=C(Nc1ccc(OC(F)(F)F)cc1)c1cnc(N2CC[C@H](CO)C2)c(-c2ccc(Cl)nc2)c1` [Example 88, (S)-6′-Chloro-2-(3-(hydroxymethyl)pyrrolidin-1-yl)-N-(4-(trifluoromethoxy)phenyl)-[3,3′-bipyridine]-5-carboxamide], the IC50 was 4 nM in experiment [1] and under 0.13 nM in experiment [2].

On to `O=C(Nc1ccc(OC(F)(F)F)cc1)c1cnc(N2CC[C@H](CO)C2)c(-c2cnc(Cl)c(F)c2)c1` [Example 89, (S)-6′-Chloro-5′-fluoro-2-(3-(hydroxymethyl)pyrrolidin-1-yl)-N-(4-(trifluoromethoxy)phenyl)-[3,3′-bipyridine]-5-carboxamide], for which the IC50 in experiment [1] was under 3 nM; in experiment [2] it was 0.3 nM.

Turning to `N#Cc1cncc(-c2cc(C(=O)Nc3ccc(OC(F)(F)F)cc3)cnc2N2CC[C@H](CO)C2)c1` [Example 90, (S)-5′-Cyano-2-(3-(hydroxymethyl)pyrrolidin-1-yl)-N-(4-(trifluoromethoxy)phenyl)-[3,3′-bipyridine]-5-carboxamide], the IC50 in experiment [1] was under 3 nM; in experiment [2] it was 0.7 nM.

`CN[C@H]1CCN(c2ncc(C(=O)Nc3ccc(OC(F)(F)F)cc3)cc2-c2cncnc2)C1` [Example 102, (S)-6-(3-(Methylamino)pyrrolidin-1-yl)-5-(pyrimidin-5-yl)-N-(4-(trifluoromethoxy)phenyl)nicotinamide]: the IC50 in experiment [1] was under 3 nM; in experiment [2], 2.3 nM.

As to `CC(C)(O)C1CCN(c2ncc(C(=O)Nc3ccc(OC(F)(F)F)cc3)cc2-c2cncnc2)C1` (stereo not shown) [Example 113, 6-(3-(2-Hydroxypropan-2-yl)pyrrolidin-1-yl)-5-(pyrimidin-5-yl)-N-(4-(trifluoromethoxy)phenyl)nicotinamide], the IC50 in experiment [1] was under 3 nM; in experiment [2], 1.5 nM.

Turning to `O=C(Nc1ccc(OC(F)(F)F)cc1)c1cnc(N2CCC3(COC3)C2)c(-c2cncnc2)c1` [Example 116, 5-(Pyrimidin-5-yl)-6-(2-oxa-6-azaspiro[3.4]octan-6-yl)-N-(4-(trifluoromethoxy)phenyl)nicotinamide], the 50% inhibitory concentration (IC50) in experiment [1] was under 3 nM; in experiment [2] it was 3.5 nM.

For `O=C(Nc1ccc(OC(F)(F)F)cc1)c1ccc(N2CCOC2=O)c(-c2cncnc2)c1` [Example 117, 4-(2-Oxooxazolidin-3-yl)-3-(pyrimidin-5-yl)-N-(4-(trifluoromethoxy)phenyl)benzamide], the IC50 in experiment [1] is 0.4 nM; in experiment [2], 5.5 nM.

In the case of `Cc1ccc(-c2cc(C(=O)Nc3ccc(OC(F)(F)F)cc3)cnc2N2CC(O)C2)cn1` [Example 127, 2-(3-Hydroxyazetidin-1-yl)-6′-methyl-N-(4-(trifluoromethoxy)phenyl)-[3,3′-bipyridine]-5-carboxamide], the values for the IC50 in experiment [1] and in experiment [2] were 4 nM and 1.1 nM, respectively.

Turning to `CC1(O)CN(c2ncc(C(=O)Nc3ccc(OC(F)(F)F)cc3)cc2-c2cccnc2)C1` [Example 130, 2-(3-Hydroxy-3-methylazetidin-1-yl)-N-(4-(trifluoromethoxy)phenyl)-[3,3′-bipyridine]-5-carboxamide], the values for the half-maximal inhibitory concentration (IC50) in experiment [1] and in experiment [2] were 3 nM and 1.2 nM, respectively.

As for `Cc1ccc(-c2cc(C(=O)Nc3ccc(OC(F)(F)F)cc3)cnc2N2CC(C)(O)C2)cn1` [Example 131, 2-(3-Hydroxy-3-methylazetidin-1-yl)-6′-methyl-N-(4-(trifluoromethoxy)phenyl)-[3,3′-bipyridine]-5-carboxamide], the IC50 in experiment [1] is 8.4 nM; in experiment [2] it was 1.3 nM.

Regarding `CC1(O)CN(c2ncc(C(=O)Nc3ccc(OC(F)(F)F)cc3)cc2-c2cncc(F)c2)C1` [Example 132, 5′-Fluoro-2-(3-hydroxy-3-methylazetidin-1-yl)-N-(4-(trifluoromethoxy)phenyl)-[3,3′-bipyridine]-5-carboxamide], the IC50 in experiment [1] is under 3 nM; in experiment [2] it was 1.5 nM.

Consider `Cc1ncc(-c2cc(C(=O)Nc3ccc(OC(F)(F)F)cc3)cnc2N2CC(C)(O)C2)cc1F` [Example 133, 5′-Fluoro-2-(3-hydroxy-3-methylazetidin-1-yl)-6′-methyl-N-(4-(trifluoromethoxy)phenyl)-[3,3′-bipyridine]-5-carboxamide], for which the half-maximal inhibitory concentration (IC50) in experiment [1] was under 3 nM; in experiment [2], 1.4 nM.

For `O=C(Nc1ccc(OC(F)(F)F)cc1)c1cnc(N2CC(CO)C2)c(-c2cncnc2)c1` [Example 135, 6-(3-(Hydroxymethyl)azetidin-1-yl)-5-(pyrimidin-5-yl)-N-(4-(trifluoromethoxy)phenyl)nicotinamide], the figures for the half-maximal inhibitory concentration (IC50) in experiment [1] and in experiment [2] were under 3 nM and 2 nM, respectively.

Turning to `O=C(Nc1ccc(OC(F)(F)F)cc1)c1cnc(N2CC(CO)C2)c(-c2cccnc2)c1` [Example 137, 2-(3-(Hydroxymethyl)azetidin-1-yl)-N-(4-(trifluoromethoxy)phenyl)-[3,3′-bipyridine]-5-carboxamide], the IC50 in experiment [1] was 6 nM; in experiment [2] it was 0.6 nM.

As for `Cc1ccc(-c2cc(C(=O)Nc3ccc(OC(F)(F)F)cc3)cnc2N2CC(CO)C2)cn1` [Example 138, 2-(3-(Hydroxymethyl)azetidin-1-yl)-6′-methyl-N-(4-(trifluoromethoxy)phenyl)-[3,3′-bipyridine]-5-carboxamide], the figures for the IC50 in experiment [1] and in experiment [2] were 7 nM and 0.8 nM, respectively.

On to `O=C(Nc1ccc(OC(F)(F)F)cc1)c1cnc(N2CC(CO)C2)c(-c2cncc(F)c2)c1` [Example 139, 5′-Fluoro-2-(3-(hydroxymethyl)azetidin-1-yl)-N-(4-(trifluoromethoxy)phenyl)-[3,3′-bipyridine]-5-carboxamide], for which the IC50 in experiment [1] turned out to be 5 nM; in experiment [2], 0.6 nM.

With `Cc1ncc(-c2cc(C(=O)Nc3ccc(OC(F)(F)F)cc3)cnc2N2CC(CO)C2)cc1F` [Example 140, 5′-Fluoro-2-(3-(hydroxymethyl)azetidin-1-yl)-6′-methyl-N-(4-(trifluoromethoxy)phenyl)-[3,3′-bipyridine]-5-carboxamide], the IC50 in experiment [1] came to 4 nM; in experiment [2] it was 0.4 nM.

As for `CC(C)(O)C1CN(c2ncc(C(=O)Nc3ccc(OC(F)(F)F)cc3)cc2-c2cccnc2)C1` [Example 143, 2-(3-(2-Hydroxypropan-2-yl)azetidin-1-yl)-N-(4-(trifluoromethoxy)phenyl)-[3,3′-bipyridine]-5-carboxamide], the values for the half-maximal inhibitory concentration (IC50) in experiment [1] and in experiment [2] were 4 nM and 1.1 nM, respectively.

`O=C(Nc1ccc(OC(F)(F)F)cc1)c1cnc(N2CCOCC2)c(-c2cncnc2)c1` [Example 148, 6-Morpholino-5-(pyrimidin-5-yl)-N-(4-(trifluoromethoxy)phenyl)nicotinamide]: the 50% inhibitory concentration (IC50) in experiment [1] was 3 nM; in experiment [2] it was 2.5 nM.
